Data as given in PubChem BioAssay (NCI).
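Tested at 5 concentrations; 48 h exposure; 96-well plates; endpoints linearly interpolated, else capped at highest concentration. GI50: concentration for 50% inhibition of growth. The concentration for full growth arrest is given as TGI.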

How the values were obtained:
Assay in all cases: DTP human tumour cell line panel, 48 h
COLO 205 colon = system: COLO 205 colon
K-562 leukemia = system: K-562 leukemia
NCI-H226 lung = system: NCI-H226 lung
NCI-H460 lung = system: NCI-H460 lung
OVCAR-3 ovarian = system: OVCAR-3 ovarian
RPMI-8226 leukemia = system: RPMI-8226 leukemia
SK-OV-3 ovarian = system: SK-OV-3 ovarian
SN12C renal = system: SN12C renal
UO-31 renal = system: UO-31 renal
EKVX NSCLC = system: EKVX NSCLC

Row | Structure (SMILES) | TGI (COLO 205 colon) | TGI (K-562 leukemia) | TGI (NCI-H226 lung) | TGI (NCI-H460 lung) | TGI (OVCAR-3 ovarian) | TGI (RPMI-8226 leukemia) | TGI (SK-OV-3 ovarian) | TGI (SN12C renal) | TGI (UO-31 renal) | GI50 (COLO 205 colon) | GI50 (K-562 leukemia) | GI50 (NCI-H226 lung) | GI50 (NCI-H460 lung) | GI50 (OVCAR-3 ovarian) | GI50 (RPMI-8226 leukemia) | GI50 (SK-OV-3 ovarian) | GI50 (SN12C renal) | GI50 (UO-31 renal) | TGI (EKVX NSCLC) | GI50 (EKVX NSCLC)
1 | COc1c2nc(CCl)[nH]c(=O)c2c(OC)c2nc(CCl)[nH]c(=O)c12 | > 100 µM | > 100 µM | > 100 µM | > 100 µM | > 100 µM | > 100 µM | > 100 µM | > 100 µM | > 100 µM |  |  |  |  |  |  |  |  |  |  | 
2 | CC[C@H](NC(=O)[C@H](C)NC)C(=O)N1C[C@@H](O)C[C@H]1Cc1c(-c2[nH]c3cc(F)ccc3c2C[C@@H]2C[C@H](O)CN2C(=O)[C@H](CC)NC(=O)[C@H](C)NC)[nH]c2cc(F)ccc12 | > 100 µM | > 100 µM | > 100 µM | > 100 µM | > 100 µM | 98 µM | 0.0189 µM | > 100 µM | > 100 µM | > 55.8 µM | 47.3 µM | > 100 µM | > 100 µM | > 100 µM | 12.8 µM | < 0.0104 µM | > 100 µM | > 100 µM |  | 
3 | CC(=O)[O-].CC(=O)[O-].[Pt+2].c1cscn1.c1cscn1 | > 100 µM | > 100 µM | > 100 µM | > 100 µM | > 100 µM | > 100 µM | > 100 µM | > 100 µM | > 100 µM | > 100 µM | 42.7 µM | > 100 µM | > 100 µM | > 100 µM | 57.7 µM | > 100 µM | > 100 µM | > 100 µM |  | 
4 | O=[N+]([O-])c1cccc(C2N3CCCCC3[C@@H]3c4[nH]c5ccccc5c4CCN23)c1 (some centres not stated) | 32.8 µM | 19.6 µM |  | 31.1 µM | 32.2 µM | > 100 µM | 52.1 µM | 27.6 µM | 25.6 µM |  |  |  |  |  |  |  |  |  | 69.9 µM | 
5 | COc1cc2c(cc1OCCCOc1cc3c(cc1OC)C(=O)N1C[C@H](F)C[C@H]1C=N3)N=C[C@@H]1C[C@@H](F)CN1C2=O | 27.4 µM | 12.7 µM |  | 20.1 µM | 26 µM | 5.79 µM | 32.9 µM | 19.2 µM | 26 µM | 14.4 µM | 2.98 µM |  | 6.15 µM | 9.75 µM | 2.01 µM | 17.9 µM | 5.6 µM | 13.2 µM | 35.5 µM | 18.7 µM
6 | O=c1c(Oc2ccc(F)cc2F)cc2cnc(NC3CCOCC3)nc2n1C1CCS(=O)(=O)CC1 | > 25 µM | > 25 µM | > 25 µM | > 25 µM | > 25 µM | > 25 µM | > 25 µM | > 25 µM | > 25 µM | > 25 µM | > 25 µM | > 25 µM | > 25 µM | > 25 µM | > 25 µM | > 25 µM | > 25 µM | > 25 µM |  | 
7 | CC(O)c1cccc(NCc2c3ccccc3c(=O)n3c2oc2ccccc23)c1 (configuration not stated) | > 100 µM | > 100 µM |  | > 100 µM | 85.2 µM | > 100 µM | 30.6 µM | > 100 µM | 28.1 µM | > 100 µM | > 100 µM |  | > 100 µM | 9.25 µM | 65 µM | 4.42 µM | 15.5 µM | 3.58 µM | 19.3 µM | 3.87 µM
8 | O=C(/C=C/c1ccc([N+](=O)[O-])o1)N1CCN(Cc2ccccc2)CC1 |  | 26.2 µM |  | 29.8 µM | 31.7 µM | 32.3 µM | > 100 µM | 21.3 µM | 31.3 µM |  |  |  |  |  |  |  |  |  | 38.2 µM | 
9 | Cn1c([N+](=O)[O-])cnc1/C=C1\Oc2ccccc2C1=O | 3.02 µM | 7.02 µM | 4.91 µM | 1.72 µM | 5.21 µM | 5.31 µM | 6.34 µM | 2.87 µM | 1.71 µM | 0.543 µM | 0.487 µM | 1.68 µM | 0.314 µM | 0.527 µM | 1.27 µM | 1.62 µM | 0.593 µM | 0.309 µM |  | 
10 | NC(=O)C(=Cc1ccc(C(O)P(=O)(O)O)cc1)C(N)=O (configuration not stated) | > 100 µM | > 100 µM |  | > 100 µM | > 100 µM | > 100 µM | > 100 µM | > 100 µM | > 100 µM |  |  |  |  |  |  |  |  |  | > 100 µM | 
11 | O=C1c2ccccc2-c2cccc3ccc(Cc4ccc5ccccc5c4)c1c23 | > 100 µM | > 100 µM |  | > 100 µM | > 100 µM | > 100 µM |  | > 100 µM | > 100 µM |  |  |  |  |  |  |  |  |  | > 100 µM | 
12 | COc1cc(Cl)c2c3c(c(C(C)=O)oc13)CCC2 | > 100 µM | > 100 µM |  | > 100 µM | > 100 µM | > 100 µM | > 100 µM | > 100 µM |  |  |  |  |  |  |  |  |  |  | > 100 µM | 
13 | CCC1(CC)C(=O)OC(=O)C1(CC)CC | > 100 µM | > 100 µM |  | > 100 µM | > 100 µM | > 100 µM | > 100 µM |  | > 100 µM |  |  |  |  |  |  |  |  |  | > 100 µM | 
